Data: ChEMBL document CHEMBL1158265, “Isoprenyl phenyl ethers from liverworts of the genus Trichocolea: cytotoxic activity, structural corrections, and synthesis” (J Nat Prod, 1996)

Legend:
Candida albicans = assay: Antifungal activity against Candida albicans at 60 ug/disk; format: functional; settings: read-out: IZ
[1] = Cytotoxicity against african green monkey BSC1 cells at 60 ug/disk; format: cell-based; settings: chlorocebus aethiops, bsc-1
[2] = tested on: Trichophyton mentagrophytes; assay: Antifungal activity against Trichophyton mentagrophytes at 60 ug/disk; format: functional; settings: read-out: IZ

Row | Compound | zone of inhibition at 60 µg/disc (Candida albicans) [mm] | Activity [1] [%] | zone of inhibition at 60 µg/disc [2] [mm]
1 | COC(=O)c1ccc(O)c(OC)c1 [METHYL VANILLATE] | 0 | 25 | 0
2 | COC(=O)c1ccc(OCC=C(C)C)c(OC)c1 | 1 | 50 | 2
